Assay results as given in BindingDB's records for doi:10.1021/jm051074u (Cephalon, 2007).
pIC50: −log10 of the molar value.

Target: Mitogen-activated protein kinase kinase kinase 10 (Homo sapiens, UniProt Q02779)
Test: Mixed-Lineage Kinase Assays
Experimental: The MLK1, MLK2, and MLK3 assays were performed using the Millipore multiscreen trichloroacetic acid (TCA) in-plate format. IC50 values were calculated by nonlinear regression using the sigmoidal dose-response (variable slope) equation in GraphPad Prism.

Chain of Mitogen-activated protein kinase kinase kinase 10 (Q02779 whole entry): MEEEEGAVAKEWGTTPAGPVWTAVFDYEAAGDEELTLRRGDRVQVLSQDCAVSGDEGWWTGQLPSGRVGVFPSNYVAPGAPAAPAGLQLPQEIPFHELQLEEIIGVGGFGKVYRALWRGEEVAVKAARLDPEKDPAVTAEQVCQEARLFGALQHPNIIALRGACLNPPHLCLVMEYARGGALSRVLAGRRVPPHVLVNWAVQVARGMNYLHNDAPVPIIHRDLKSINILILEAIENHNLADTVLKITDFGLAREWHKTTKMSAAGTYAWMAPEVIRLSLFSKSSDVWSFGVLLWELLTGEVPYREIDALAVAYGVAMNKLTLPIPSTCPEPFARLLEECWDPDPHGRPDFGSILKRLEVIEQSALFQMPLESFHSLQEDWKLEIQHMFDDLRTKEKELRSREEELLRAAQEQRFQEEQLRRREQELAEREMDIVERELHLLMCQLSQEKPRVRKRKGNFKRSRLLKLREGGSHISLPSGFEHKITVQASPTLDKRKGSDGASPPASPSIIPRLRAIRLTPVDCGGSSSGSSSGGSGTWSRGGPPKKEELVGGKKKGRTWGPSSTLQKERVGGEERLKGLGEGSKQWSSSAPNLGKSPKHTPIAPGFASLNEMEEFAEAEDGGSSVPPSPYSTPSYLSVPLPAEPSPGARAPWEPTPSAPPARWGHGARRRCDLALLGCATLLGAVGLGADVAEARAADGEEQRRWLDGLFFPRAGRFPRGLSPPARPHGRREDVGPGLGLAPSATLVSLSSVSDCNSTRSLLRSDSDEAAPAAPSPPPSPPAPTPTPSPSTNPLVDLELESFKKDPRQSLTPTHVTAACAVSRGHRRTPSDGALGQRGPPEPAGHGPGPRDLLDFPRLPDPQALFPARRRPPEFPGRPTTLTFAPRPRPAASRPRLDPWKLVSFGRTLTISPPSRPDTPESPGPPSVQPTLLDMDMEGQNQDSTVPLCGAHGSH

Structure (SMILES): COC(=O)[C@@]1(O)C[C@H]2O[C@]1(C)n1c3ccccc3c3c4c(c5c6ccccc6n2c5c31)C(=O)NC4
- pIC50: 7.35
